Measured values published in patent US4000985A, “Azo dyes having a high solubility in petroleum fuels” (Morton-Norwich Products, Inc., priority 1975, dated 1977).

Key:
Type in all cases: physicochemical
[1] = Physical state of the isolated dye; conditions: for Physical State of Dye: after isolation according to Procedure B
Excerpt: alternatively, the crude liquid dye may be taken up with a volatile solvent and the solvent removed during the drying process to yield a non-volatile liquid colorant.

[2] = Dissolution of 58% dye in 42% fuel by warming, cooling to 25° C. (six heating/diesel oils); conditions: 58% by weight dye, warmed, cooled to 25° C.
Description: No. 2 Regular Grade Diesel Oil
Each dye-fuel oil mixture was warmed with stirring and then cooled to 25° C.

[3] = Storage solubility in No. 1 and No. 2 Heating Oil at ambient temperature and -10° C.
Description: The resultant mixtures were stored at ambient temperatures (20° to 25° C.) and at -10° C. Where any separation of dye occurred, the dye content of the remaining solution was determined colorimetrically.

[4] = Storage solubility in xylene at 20°-25° C. and -10° C.
Description: The solutions obtained were stored at 20°-25°C. and at -10° C. Where any separation of dye occurred, the dye content of the remaining solution was determined colorimetrically.

[5] = Dissolution of 58% dye in 42% fuel by warming, cooling to 25° C. (six heating/diesel oils)
[6] = Rate and extent of dissolution in No. 1 and No. 2 Heating Oils at 25° C. (colorimetric); conditions: for solubility in fuel oils (in words): No. 1 and No. 2 fuel oils; for dissolution in the heating oils: two minutes contact
Description: The solubility properties of each of the dyes of Examples 16-41 were evaluated in the fuels No. 1 and No. 2 Heating Oils, respectively. The procedure was as follows:
Where the dyes are solid dyes, excess of pulverized solid dye, far beyond that which would dissolve, i.e., 30 to 35% dye, was added to the respective oils at 25° C. and agitated at constant speed. Samples were removed at 1, 10 and 20 minute intervals, filtered, and the amount of dissolved dye determined colorimetrically.
The tarry non-solid dyes were charged in proportions of 50-60% dye to 50-40% oil rather than 30-35% used for the solid dyes. In fact, it was very difficult to stir the tarry dye-fuel oil mixture at a dye concentration of 50%. Samples for these dyes were taken after 2 minutes. The longer initial time for the tarry dyes was to permit reasonable contact between solvent and the viscous, condensed dye.

[7] = General statements on solubility and dissolution rate in petroleum fuels
[8] = Equilibrium solubility of Solvent Red No. 19 in petroleum fuels (filtrate, colorimetric)
Description: Solvent Red No. 19 was subjected to the same solubility test as set forth in Example 14.
In each instance, the precipitated mass was filtered and the dye content of the filtrate was determined colorimetrically.

[9] = No. 1 Heating Oil, 20° C.-25° C. (Table 10)
[10] = No. 1 Heating Oil, -10° C. (Table 10)
[11] = No. 2 Heating Oil, 20° C.-25° C. (Table 11)
[12] = No. 2 Heating Oil, -10° C. (Table 11)
[13] = No. 1 Fuel Oil, 20 Minutes, 25° C., aminoazotoluene dyes (Table 6)
[14] = No. 2 Fuel Oil, 20 Minutes, 25° C., aminoazotoluene dyes (Table 7)
[15] = No. 1 Heating Oil, 20° C.-25° C. (Table 8)
[16] = No. 1 Heating Oil, -10° C. (Table 8)
[17] = No. 2 Heating Oil, 20° C.-25° C. (Table 9)
[18] = No. 2 Heating Oil, -10° C. (Table 9)
[19] = No. 1 Fuel Oil, 20 Minutes, 25° C., aminoazobenzene dyes (Table 4)
[20] = No. 2 Fuel Oil, 20 Minutes, 25° C., aminoazobenzene dyes (Table 5)

| SMILES | Physical State of Dye at 20° C. [1] | behavior of dye-fuel oil mixture on cooling/storage [2] | Solubility (% by Wt.) [3, 9] | Solubility (% by Wt.) [3, 10] | Solubility (% by Wt.) [3, 11] | Solubility (% by Wt.) [3, 12] | Solubility (% by Wt.) ([4]; 20° C.-25° C. (Table 12)) | Solubility (% by Wt.) ([4]; -10° C. (Table 12)) | equilibrium solubilities [5] | Solubility (% by Wt.) [3, 15] | Solubility (% by Wt.) [3, 17] | further results |
| --- | --- | --- | --- | --- | --- | --- | --- | --- | --- | --- | --- | --- |
| CCCCC(CC)COCCCNc1ccc2ccccc2c1N=Nc1ccc(N=Nc2ccccc2)cc1C (centres unmarked) [Example 9] | Tar | displayed some separation of dye upon lengthy storage | 26.6 % by Wt. | 9.5 % by Wt. | 28.8 % by Wt. | 9.5 % by Wt. | Complete | 38.1 % by Wt. | exceeded 25 percent by weight | – | – | – |
| CCCCC(CC)CNc1ccc2ccccc2c1N=Nc1ccc(N=Nc2ccccc2C)cc1C (centres unmarked) [Example 1] | Liquid | completely soluble and remained soluble at temperatures ranging from -10 °C to 25 °C | – | – | – | – | Complete | Complete | – | Complete | Complete | Physical State of Dye ([1]; listed as 38): liquid dye; Percent Dissolved [6, 13]: 58.0%; Percent Dissolved ([6]; No. 1 Fuel Oil, 2 min, aminoazotoluene dyes (Table 6)): 58.0%; solubility in fuel oils (in words) [6]: exceptionally high solubility; Percent Dissolved [6, 14]: 55.3%; Percent Dissolved ([6]; No. 2 Fuel Oil, 2 min, aminoazotoluene dyes (Table 7)): 55.3%; dissolution in the heating oils [6]: dissolved completely after two minutes contact; Solubility (% by Wt.) [3, 16]: Complete; Solubility (% by Wt.) [3, 18]: Complete |
| CCCCC(CC)CNc1ccc2ccccc2c1N=Nc1ccc(N=Nc2ccccc2)cc1 (centres unmarked) [Example 2] | Solid | precipitated as a solid mass almost immediately upon cooling to 25 °C | – | – | – | – | 25.5 % by Wt. | 10.35 % by Wt. | – | 4.4 % by Wt. | 5.1 % by Wt. | Physical State of Dye [1]: Solid; Percent Dissolved ([6]; No. 1 Fuel Oil, 1 Minute, 25° C., aminoazobenzene dyes (Table 4)): 3.43%; Percent Dissolved ([6]; No. 1 Fuel Oil, 10 Minutes, 25° C., aminoazobenzene dyes (Table 4)): 3.87%; Percent Dissolved [6, 19]: 4.47%; Percent Dissolved ([6]; No. 2 Fuel Oil, 1 Minute, 25° C., aminoazobenzene dyes (Table 5)): 4.63%; Percent Dissolved ([6]; No. 2 Fuel Oil, 10 Minutes, 25° C., aminoazobenzene dyes (Table 5)): 4.90%; Percent Dissolved [6, 20]: 5.13%; crystallization from oily solvents ([7]; aromatic solvents, diesel and heating oils): crystallizes from oily solvents, including aromatic solvents, and diesel and heating oils |
| CCCCC(CC)CNc1ccc2ccccc2c1N=Nc1ccc(N=Nc2ccccc2)cc1C (centres unmarked) [Example 3] | Liquid | completely soluble and remained soluble at temperatures ranging from -10 °C to 25 °C | – | – | – | – | Complete | Complete | – | Complete | Complete | Solubility (% by Wt.) [3, 16]: Complete; Solubility (% by Wt.) [3, 18]: Complete |
| CCNc1ccc2ccccc2c1N=Nc1ccc(N=Nc2ccccc2)cc1 [Solvent Red No. 19] | – | precipitation occurred immediately | – | – | – | – | – | – | – | – | – | % by Weight Soluble (At Equilibrium) ([8]; No. 1 Heating Oil): 2.23 % by Weight; % by Weight Soluble (At Equilibrium) ([8]; No. 1 Premium Diesel): 1.89 % by Weight; % by Weight Soluble (At Equilibrium) ([8]; No. 2 Heating Oil): 3.41 % by Weight; % by Weight Soluble (At Equilibrium) ([8]; No. 2 Premium Diesel): 2.30 % by Weight; % by Weight Soluble (At Equilibrium) ([8]; No. 2 Regular Diesel): 2.63 % by Weight; % by Weight Soluble (At Equilibrium) ([8]; No. 4 Heating Oil): 5.76 % by Weight |
| CCCCC(CC)COCCCNc1ccc2ccccc2c1N=Nc1cc(C)c(N=Nc2ccccc2C)cc1C (centres unmarked) [Example 10] | Tar | displayed some separation of dye upon lengthy storage | 29.5 % by Wt. | 19.8 % by Wt. | 29.7 % by Wt. | 12.1 % by Wt. | 36.3 % by Wt. | 20.8 % by Wt. | exceeded 25 percent by weight | – | – | – |
| CCCCC(CC)CNc1ccc2ccccc2c1N=Nc1cc(C)c(N=Nc2ccccc2C)cc1C (centres unmarked) [Example 4] | Liquid | displayed some separation of dye upon lengthy storage | – | – | – | – | 50.0 % by Wt. | 25.0 % by Wt. | exceeded 25 percent by weight | 44.8 % by Wt. | 44.1 % by Wt. | – |
| CCCCC(CC)COCCCNc1ccc2ccccc2c1N=Nc1ccc(N=Nc2ccccc2)cc1 (centres unmarked) [Example 8] | Liquid | completely soluble and remained soluble at temperatures ranging from -10 °C to 25 °C | Complete | Complete | Complete | Complete | Complete | Complete | – | – | – | Physical State of Dye ([1]; listed as 27): liquid; Percent Dissolved [6, 19]: 52.3%; Percent Dissolved ([6]; No. 1 Fuel Oil, 2 min., aminoazobenzene dyes (Table 4)): 52.3%; solubility in fuel oils (in words) [6]: exceptionally high solubility; Percent Dissolved [6, 20]: 52.3%; Percent Dissolved ([6]; No. 2 Fuel Oil, 2 min., aminoazobenzene dyes (Table 5)): 52.3%; dissolution in the heating oils [6]: dissolved completely after two minutes contact |
| CCCCC(CC)COCCCNc1ccc2ccccc2c1N=Nc1ccc(N=Nc2ccccc2C)cc1C (centres unmarked) [Example 7] | Solid | precipitated as a solid mass almost immediately upon cooling to 25 °C | 8.3 % by Wt. | – | 7.7 % by Wt. | – | Complete | 20.8 % by Wt. | – | – | – | Physical State of Dye [1]: Solid; Percent Dissolved ([6]; No. 1 Fuel Oil, 1 Minute, 25° C., aminoazotoluene dyes (Table 6)): 6.44%; Percent Dissolved ([6]; No. 1 Fuel Oil, 10 Minutes, 25° C., aminoazotoluene dyes (Table 6)): 7.41%; Percent Dissolved [6, 13]: 8.35%; Percent Dissolved ([6]; No. 2 Fuel Oil, 1 Minute, 25° C., aminoazotoluene dyes (Table 7)): 6.12%; Percent Dissolved ([6]; No. 2 Fuel Oil, 10 Minutes, 25° C., aminoazotoluene dyes (Table 7)): 6.85%; Percent Dissolved [6, 14]: 7.71%; solubility in petroleum fuels (in words) [7]: relatively low solubility in petroleum fuels |
